Consider 3 compounds from patent publication US10017712B2, “Method for producing vitamin E-enriched, especially tocotrienol-enriched, compositions from natural oils” (Evonik Degussa GmbH, priority 2014, dated 2018).

Series [1] can be described thus: Partition coefficients of individual tocopherols and tocotrienols, palm oil with ethanol or methanol. It counts as physicochemical. The procedure:
Table 3 provides values of the individual partition coefficient values of tocopherol and tocotrienol compounds found in palm oil. The values were measured by contacting palm oil and ethanol (denoted PC Eth in Table 3) and palm oil and methanol (denoted PC Meth in Table 3) at the oil to solvent ratios noted in the table—e.g. PC Eth 1:5 means that one volume of palm oil was contacted with 5 volumes of ethanol.

Series [2] can be described thus: Single stage methanol extraction of vegetable oils, partition coefficient. Format: physicochemical. The procedure: First methanol was tested for its efficiency in extracting of α-tocopherol and FFA from three vegetable oils. 200-300 ml of oil was mixed with the solvent using a magnetic stirrer at 35° C. The mixture is gravity separated and the oil stayed at the bottom. Partition coefficients of α-tocopherol and FFA were obtained by measuring the concentration of both compounds in the extract and the bottom fraction without evaporation of the solvent. The partition coefficient is calculated as follows: PC=(concentration in the extract)/(concentration in the bottom fraction).

Where [3] appears, read: PC Meth 1:1 (palm oil:methanol).
Where [4] appears, read: PC Meth 1:2 (palm oil:methanol).
Where [5] appears, read: PC Meth 1:3 (palm oil:methanol).
Setting [6] is: PC Meth 1:5 (palm oil:methanol).
The mark [7] stands for this setting: PC Meth 1:7 (palm oil:methanol).

Turning to `CC(C)=CCC/C(C)=C/CC/C(C)=C/CC[C@]1(C)CCc2cc(O)c(C)c(C)c2O1` [Gamma-tocotrienol], the Partition coefficient in series [1] (PC Eth 1:1 (palm oil:ethanol)) worked out at 0.72; in series [1] (PC Eth 1:2 (palm oil:ethanol)) it was 0.81; in series [1] (PC Eth 1:3 (palm oil:ethanol)), 0.85; in series [1] (PC Eth 1:5 (palm oil:ethanol)) it was 0.79; in series [1] (PC Eth 1:7 (palm oil:ethanol)), 0.53; in series [1] (setting [3]), 1.17. Moreover, the Partition coefficient in series [1] (setting [4]) is reported as 0.64; in series [1] (setting [5]), 0.76; in series [1] (setting [6]) it was 0.46; in series [1] (setting [7]) it was 0.36.
On to `Cc1cc(O)cc2c1O[C@](C)(CCC[C@H](C)CCC[C@H](C)CCCC(C)C)CC2` [Delta-tocopherol], for which the Partition coefficient in series [1] (PC Eth 1:1 (palm oil:ethanol)) was 0.50; in series [1] (PC Eth 1:2 (palm oil:ethanol)), 0.47; in series [1] (PC Eth 1:5 (palm oil:ethanol)) it was 0.53; in series [1] (PC Eth 1:7 (palm oil:ethanol)) it was 0.29; in series [1] (setting [3]) it was 0.25; in series [1] (setting [4]) it was 0.07. Moreover, the Partition coefficient is given as 0.09 in series [1] (setting [6]) and 0.01 in series [1] (setting [7]).
With `Cc1c(C)c2c(c(C)c1O)CC[C@@](C)(CCC[C@H](C)CCC[C@H](C)CCCC(C)C)O2` [α-tocopherol], the “Partition coefficient” value in series [2] (Palm Oil, Solvent:Oil Ratio 2:1, 35° C.) was determined as 0.15; in series [2] (Rapeseed Oil, Solvent:Oil Ratio 3:1, 35° C.), 0.39; in series [2] (Rice Bran Oil, Solvent:Oil Ratio 2:1, 35° C.), 0.20; in series [1] (PC Eth 1:1 (palm oil:ethanol)), 0.30; in series [1] (PC Eth 1:2 (palm oil:ethanol)), 0.31; in series [1] (PC Eth 1:3 (palm oil:ethanol)), 0.25. For the same compound, the Partition coefficient was determined as 0.42 in series [1] (PC Eth 1:5 (palm oil:ethanol)); 0.22 in series [1] (PC Eth 1:7 (palm oil:ethanol)); 0.21 in series [1] (setting [3]); 0.15 in series [1] (setting [4]); 0.21 in series [1] (setting [5]); 0.11 in series [1] (setting [6]). In series [1] (setting [7]), the Partition coefficient was 0.09.
